# Data: article PMC6669608, “Evaluation of Oxasqualenoids from the Red Alga Laurencia viridis against Acanthamoeba” (Marine Drugs, 2019)
# Like-named read-outs stand apart in the source and are kept apart here.
# Tests used:
# [1] = Cytotoxicity assay (alamarBlue); format: cell-based, murine; set-up: CC50, toxicity against murine macrophage J774A.1 (unit not given): unit not given beside the values; settings: mouse, 24 h, 37 °C, read-out: CC50, toxicity against murine macrophage J774.A1
# Experimental: (§1) The antiamoeboid activity of the compounds was evaluated against Acanthamoeba castellanii Neff (ATCC 30010) type strain from the American Type Culture Collection. This strain was axenically incubated in PYG medium (0.75% (w/v) proteose Peptone, 0.75% (w/v) Yeast extract, and 1.5% (w/v) Glucose) supplemented with 10 µg/mL gentamicin (Sigma-Aldrich, Madrid, Spain). As for the cytotoxicity assays, murine macrophages J774A.1 (ATCC TIB-67) were used, cultivated in DMEM medium (Dulbecco’s modified eagle medium, Gibco Life Technologies, California, USA) with 10% supplement of fetal bovine serum (FBS) and 10 µg/mL gentamicin at 37 °C in a 5% CO2 incubator.
# (§2) The cytotoxicity of the tested compounds was determined in vitro with murine macrophages (J774A.1). For this assay, the DMEM culture medium was changed from RPMI without phenol red (Roswell Park Memorial Institute, Thermo Fisher Scientific Inc., Waltham, MA, USA) to L-Glutamine supplemented with 10% (v/v) inactivated FBS and with 10 µg/mL gentamicin. In this assay, the macrophages were counted and seeded into a 96-well microtiter plate, adding 50 µL to each well from a stock solution of 2 × 10^5 cells/mL. Cells were then left to adhere for 15 min to the plate bottom and were checked with the inverted microscope Leica DMIL. After that, 50 µL of a serial dilution of the compounds was added to the 96-well microtiter plate. Finally, alamarBlue™ was added into each well at an amount equal to 10% of the final volume and incubated at 37 °C in the presence of CO2 at 5% for 24 h. After this period of time, as in the in vitro anti-Acanthamoeba assay, the fluorescence was determined with an EnSpire Multimode Plate Reader (PerkinElmer, Inc, Waltham, MA, USA) at a wavelength of 570/585 nm. The cytotoxicity concentration to inhibit the growth of 50% of murine macrophages (CC50) was calculated through nonlinear regression analysis with 95% confidence limits using the software Sigma Plot 12.0 (Systat Software, Inc, San Jose, CA 95110 USA). Experiments were performed three times each, allowing for standard deviation.
# [2] = system: Acanthamoeba castellanii Neff trophozoites; assay: In vitro activity against Acanthamoeba trophozoites (alamarBlue colorimetric assay); format: cell-based, Acanthamoeba castellanii Neff (ATCC 30010); settings: 96 h, read-out: IC50 against Acanthamoeba castellanii Neff
# Experimental: as §1
# The in vitro activities of the different compounds of Laurencia were evaluated using a previously developed colorimetric assay based on the alamarBlue™ Cell Viability Reagent assay (Life Technologies, Barcelona, Spain). Briefly, 50 µL of 5 × 10⁴ trophozoites/mL were seeded onto a 96-well microtiter plate. After 15 min, the adherence of the cells to the plate bottom was confirmed by the use of the inverted microscope Leica DMIL (Leica, Wetzlar, Germany). Furthermore, 50 µL of serial dilutions of each compound was added to the 96-well microtiter plate. Finally, alamarBlue™ was placed into each well at 10% of the final volume and incubated at 26 °C with slight agitation. After 96 h, the fluorescence was measured with EnSpire Multimode Plate Reader (Perkin Elmer, Madrid, Spain) at a wavelength of 570/585 nm. The inhibitory concentration to inhibit the growth of 50% of the parasites (IC50) was calculated through nonlinear regression analysis with 95% confidence limits using the software Sigma Plot 12.0 (Systat Software Inc., London, UK). The experiments were performed three times each, allowing for standard deviation.
# [3] = system: murine macrophages J774A.1; assay: Cytotoxicity assay (alamarBlue); format: cell-based; set-up: CC50, toxicity against murine macrophage J774A.1 (unit not given): unit not given beside the values; settings: for CC50, toxicity against murine macrophage J774A.1 (unit not given): mouse
# Experimental: as §1, §2
# [4] = system: Acanthamoeba castellanii Neff trophozoites; set-up: method as in PMID 30423882; settings: previous work; read-out: IC50 against Acanthamoeba castellanii Neff; cited from earlier work
# [5] = system: Acanthamoeba castellanii Neff trophozoites; assay: In vitro activity against Acanthamoeba trophozoites (alamarBlue colorimetric assay); format: cell-based, Acanthamoeba castellanii Neff (ATCC 30010); settings: 42.5 µM (25 µg/mL)
compound,measurement,setting,value
"C[C@@H](c1ncncc1F)[C@](O)(Cn1cncn1)c1ccc(F)cc1F [Voriconazole, voriconazole, reference compound]",CC50 at 24 h,[1]; J774A.1 murine macrophages,2.64 ± 0.27 µM
same,IC50,"[2]; trophozoites, 26 °C",0.94 ± 0.29 µM
"CC(C)(O)[C@H]1CC[C@](C)([C@@H]2CC[C@](CI)([C@H]3CC[C@H]4O[C@@H]([C@]5(C)CC[C@@H](Br)C(C)(C)O5)CC[C@]4(C)O3)O2)O1 [Compound 15, 28-iodosaiyacenol B]",CC50,[1],> 100 µM
same,IC50,"[2]; trophozoites, 26 °C",54.3 ± 6.56 µM
"C=C(CC[C@H](O)[C@@]1(C)CC[C@](O)(C(C)(C)O)O1)[C@H]1CC[C@H]2O[C@@H]([C@]3(C)CC[C@@H](Br)C(C)(C)O3)CC[C@]2(C)O1 [Compound 4, 22-hydroxydehydrothyrsiferol]",toxicity against murine macrophages (in words),[3],not toxic against murine macrophages
same,"CC50, toxicity against murine macrophage J774A.1 (unit not given)",[3],< 50
same,CC50,[1],> 100 µM
same,IC50,"[2]; trophozoites, 26 °C",17 ± 4.57 µM
"CC(C)(O)[C@H]1CC[C@](C)([C@@H]2CC[C@](C)([C@H]3CC[C@H]4O[C@@H]([C@]5(C)CC[C@@H](Br)C(C)(C)O5)CC[C@]4(C)O3)O2)O1 [Compound 7, saiyacenol B]",CC50,[1],> 100 µM
same,IC50,"[2]; trophozoites, 26 °C",77.9 ± 3.3 µM
"CC(C)(O)C1CCC(C)(C2CCC(C)(C3CCC(C(C)(O)CCC4OC(C)(C)C5CCC4(C)O5)O3)O2)O1 (centres unmarked) [Compound 10, nivariol A]",CC50 at 24 h,[1]; J774A.1 murine macrophages,> 100 µM
same,IC50,"[2]; trophozoites, 26 °C",102 ± 9.57 µM
"CC(C)(O)[C@H]1CC[C@](C)([C@@H]2CC[C@@](CI)([C@H]3CC[C@H]4O[C@@H]([C@]5(C)CC[C@@H](Br)C(C)(C)O5)CC[C@]4(C)O3)O2)O1 [Compound 14, 28-iodosaiyacenol A]",CC50,[1],29.45 ± 0.2 µM
same,IC50,"[2]; trophozoites, 26 °C",50.5 ± 3.05 µM
"CC(C)(O)[C@H]1CC[C@](C)([C@@H]2CC[C@@](CO)([C@H]3CC[C@H]4O[C@@H]([C@]5(C)CC[C@@H](Br)C(C)(C)O5)CC[C@]4(C)O3)O2)O1 [Compound 8, 28-hydroxysaiyacenol A]",CC50,[1],> 100 µM
same,IC50,"[2]; trophozoites, 26 °C",66.2 ± 3.81 µM
3α-bromojohnstane,IC50,[4],41.5 µM
"C[C@@H]1[C@H](O)[C@@H](C)/C=C/C=C/C=C/C=C/C=C/C=C/C=C/[C@H](O[C@@H]2O[C@H](C)[C@@H](O)[C@H](N)[C@@H]2O)C[C@@H]2O[C@](O)(C[C@@H](O)C[C@@H](O)[C@H](O)CC[C@@H](O)C[C@@H](O)CC(=O)O[C@H]1C)C[C@H](O)[C@H]2C(=O)O [Amphotericin B, amphotericin B, reference compound]",CC50 at 24 h,[1]; J774A.1 murine macrophages,> 100 µM
same,IC50,"[2]; trophozoites, 26 °C",39.6 ± 0.56 µM
"CC(C)(O)[C@H]1CC[C@](C)([C@@H](O)CC[C@](C)(O)[C@H]2CC[C@H]3O[C@@H]([C@]4(C)CC[C@@H](Br)C(C)(C)O4)CC[C@]3(C)O2)O1 [Compound 2, thyrsiferol]",toxicity against murine macrophages (in words),[3],not toxic against murine macrophages
same,"CC50, toxicity against murine macrophage J774A.1 (unit not given)",[3]; 24 h,< 50
same,CC50 at 24 h,[1],> 100 µM
same,IC50,[2],14 ± 1.57 µM
"C=C(C)[C@@H]1CC[C@@](C)([C@H]2CC[C@]3(C)O[C@@H](C(=C)CC[C@H](O)[C@@]4(C)CC[C@H](C(C)(C)O)O4)CC[C@H]3O2)O1 [Compound 5, 1,2-dehydropseudodehydrothyrsiferol]",CC50 at 24 h,[1]; J774A.1 murine macrophages,> 100 µM
same,IC50,"[2]; trophozoites, 26 °C",105 ± 1.72 µM
"C=C(CC[C@H](O)[C@@]1(C)CC[C@@H](O)C(C)(C)O1)[C@H]1CC[C@H]2O[C@@H]([C@]3(C)CC[C@@H](Br)C(C)(C)O3)CC[C@]2(C)O1 [Compound 3, iubol]",CC50,[1],7.72 ± 0.22 µM
same,inhibitory effect on the growth of A. castellanii trophozoites (microscopy),[5],many of the treated cells were dead
same,IC50,"[2]; trophozoites, 26 °C",5.3 ± 0.87 µM
"CC(C)(O)[C@H]1CC[C@](C)([C@@H]2CC[C@](CO)([C@H]3CC[C@H]4O[C@@H]([C@]5(C)CC[C@@H](Br)C(C)(C)O5)CC[C@]4(C)O3)O2)O1 [Compound 9, 28-hydroxysaiyacenol B]",CC50,[1],> 100 µM
same,IC50,"[2]; trophozoites, 26 °C",59.9 ± 10.1 µM
"C=C(CC[C@H](OS(=O)(=O)O)[C@@]1(C)CC[C@H](C(C)(C)O)O1)[C@H]1CC[C@H]2O[C@@H]([C@]3(C)CC[C@@H](Br)C(C)(C)O3)CC[C@]2(C)O1 [Compound 12, 18-sulphatedehydrothyrsiferol]",CC50,[1],> 100 µM
same,IC50,"[2]; trophozoites, 26 °C",43.18 ± 0.14 µM
"CC1(C)O[C@](C)([C@H]2CC[C@]3(C)OC(=O)CC[C@H]3O2)CC[C@H]1Br [Compound 11, adejene B]",CC50 at 24 h,[1]; J774A.1 murine macrophages,> 100 µM
same,IC50,"[2]; trophozoites, 26 °C",48.3 ± 0.55 µM
"CC(C)(O)[C@H]1CC[C@](C)([C@@H]2CC[C@@](C)([C@H]3CC[C@H]4O[C@@H]([C@]5(C)CC[C@@H](Br)C(C)(C)O5)CC[C@]4(C)O3)O2)O1 [Compound 6, saiyacenol A]",CC50,[1],59.9 ± 8.5 µM
same,IC50,"[2]; trophozoites, 26 °C",55.4 ± 6.56 µM
"[H]/N=C(\N/C(=N/[H])NCCCCCCNC(=N)NC(=N)Nc1ccc(Cl)cc1)Nc1ccc(Cl)cc1 [Chlorhexidine, chlorhexidine, reference compound]",CC50 at 24 h,[1]; J774A.1 murine macrophages,6.64 ± 0.35 µM
"CC(C)(O)[C@H]1CC[C@](C)([C@@H](O)CCC(O)(CO)[C@H]2CC[C@H]3O[C@@H]([C@]4(C)CC[C@@H](Br)C(C)(C)O4)CC[C@]3(C)O2)O1 (some centres unmarked) [Compound 16, 28-hydroxythyrsiferol]",CC50,[1],> 100 µM
same,IC50,"[2]; trophozoites, 26 °C",104 ± 8.42 µM
"C=C(CCC(=O)[C@@]1(C)CC[C@H](C(C)(C)O)O1)[C@H]1CC[C@H]2O[C@@H]([C@]3(C)CC[C@@H](Br)C(C)(C)O3)CC[C@]2(C)O1 [Compound 13, 18-ketodehydrothyrsiferol]",CC50,[1],23.4 ± 1.76 µM
same,IC50,"[2]; trophozoites, 26 °C",29.1 ± 2.84 µM
